# According to patent US11969490B2, “Hair conditioning composition with antimicrobial system” (The Procter & Gamble Company, priority 2020, dated 2024):
# Assay: Rheology Test Method (shear stress at 950 s^−1 via flow curve)
# Assay type: physicochemical
# Experimental: 2. Rheology Test Method Rheology is used to evaluate and characterise product samples. The two key rheology methods identified are mentioned below: • Shear Stress at 950 s^−1 via flow curve: This is the method to ramp up shear rate logarithmically from 0.1 to 1000 s^−1 in 1 min using a cone & plate geometry, and to read the shear stress value 6 (Pa) at shear rate 950 s^−1. • Delta in Rheology %: This is the percentage difference in rheology measurement following the formula below: Delta in Rheology %=((a−b)/b)×100% • where a is the post added product and b is the no post added product. If rheology reduction is more than 50%, it would indicate significant interaction with chassis and incompatible.
row,Compound,"rheology reduction / compatibility with formulation, in words"
1,CC(=O)c1ccc(O)cc1 [4-Hydroxyacetophenone],no significant rheology reduction
2,CCCCCCCC(=O)OCC(O)CO (stereo not shown) [Glyceryl caprylate],no significant rheology reduction
3,"O=C([O-])c1ccccc1.[Na+] [Sodium benzoate, reference compound]",significant rheology reduction
4,Pentylene Glycol,no significant rheology reduction
